Read-outs that look alike come from different tables or passages of the source.
Assays:
MKK7 = biological target: T1, MKK7 (Homo sapiens, UniProt O14733); test: MKK7 binding, KdELECT assays (DiscoverX); conditions: for fold loss of potency: vs ZNL-8162
T1 construct: purchased DiscoverX
T1 sequence (O14733 1-419): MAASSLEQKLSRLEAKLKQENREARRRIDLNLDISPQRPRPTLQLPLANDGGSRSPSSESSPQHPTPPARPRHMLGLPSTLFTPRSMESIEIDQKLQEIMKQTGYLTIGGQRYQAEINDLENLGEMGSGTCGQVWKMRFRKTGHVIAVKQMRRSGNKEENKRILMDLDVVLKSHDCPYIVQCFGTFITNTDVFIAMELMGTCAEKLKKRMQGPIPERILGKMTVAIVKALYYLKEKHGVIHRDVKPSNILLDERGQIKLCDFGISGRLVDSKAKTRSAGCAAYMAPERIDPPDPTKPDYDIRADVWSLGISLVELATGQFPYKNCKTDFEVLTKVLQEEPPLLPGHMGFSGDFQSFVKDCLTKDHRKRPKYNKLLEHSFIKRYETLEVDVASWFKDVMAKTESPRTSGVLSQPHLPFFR
Description: Figure 2 ZNL-8162 is a molecular bident for MKK7. (A) Compound structures for MKK7-targeting molecular bident (ZNL-8162) and its relatives lacking one or both cysteine-reactive groups. (B) Covalent modeling for ZNL-8162 engagement of MKK7(PDB: 6YG3). (C) MS/MS spectrum of ZNL-8162 covalently modifying Cys218 and Cys276 of MKK7. Red and yellow circles indicate ions of type y for sequences marked (1) and (2), respectively. Blue circles indicate ions of b for sequence (1). *, carbamidomethyl cysteine, Δ, oxidized methionine. (D) MKK7 binding data were obtained from KdELECT assays (DiscoverX). Data are presented as mean ± s.d. of n = 2 biologically independent samples.
Table S2. […]

p-JNK1/2 = test: Immunoblot of MKK7-JNK pathway in MDA-MB-231 cells; type: cell-based; conditions: MDA-MB-231, anisomycin, 16 h, up to 10 μM
Description: Figure S1. Effects of the indicated compounds on the MKK7 -JNK pathway in MDA -MB-231 cells after 16 h treatment. MDA -MB-231 cells were pretreated with anisomycin for 45 min prior to the addition of the indicated compounds f or 16 h. Representative data from two independent […]
Anisomycin (10 μg/mL) - + + +
(1 picture or pasted object on this page, not shown here) […]
(§1) Immunoblotting and antibodies
Cells were lysed in RIPA buffer (150 mM NaCl, 1.0% IGEPAL® CA-630, 0.5% sodium deoxycholate, 0.1% SDS, 50 mM Tris, pH 8.0) (Sigma, Cat# R0278) with protease inhibitor and phosphatase inhibitor (Roche). The protein concentrations were measured by BCA analysis (Thermo Fisher Scientific, Cat # PI23225). Equal amounts of protein were resolved by 4-12% Bis-Tris gels (Life Technologies), and then transferred to the Immuno-Blot PVDF membrane (BioRad, cat # 1620177). The membranes were blocked by Intercept blocking buffer (LI-COR, cat #927-60001) for 1 hour at room temperature. Proteins were probed with appropriate primary antibodies at 4 ℃ overnight and then with IRDye®800-labeled goat anti-rabbit IgG (LICOR Biosciences, cat […]
or IRDye 680RD goat anti-Mouse IgG (LICOR Biosciences , Cat # 926-68070) secondary antibodies at room temperature for 1 hour. The membranes were detected on Odyssey CLx system.
Antibodies used in this study include anti-following proteins: EGFR (Cell signaling Technology, […]
Akt (Cell signaling Technology, # 9272L, 1:1000), p-Akt (Cell Signaling Technology, #4060S,

EGFR^L858R Ba/F3 cells = test: Antiproliferation assay (CellTiter-Glo); type: cell-based; conditions: vs ZNL-0056 and ZNL-0091
Description: (§2) Figure S6 Dose-response curves for the indicated compounds in EGFRL858R, EGFRL858R/C797S, and EGFRL858R/C775S Ba/F3 cells following 72 h of treatment. Cell viability was assessed with CellTiter-Glo.
(§3) Data are presented as the mean ± SEM (n = 4). Representative data from three independent experiments
(§4) (1 picture or pasted object on this page, not shown here)
(§5) For infection of Ba/F3 cells, 2.5 mL of viral supernatant and 8 μg/mL polybrene was added to 2.5 million cells per well in six-well plates. The plate was centrifuged at 2500 rpm for 90 minutes at 37 °C for the spin infection. Then, virus-containing medium was removed 48 hours later and successfully infected cells were selected with the addition of 1 μg/mL puromycin to the medium.
(§6) After 3 days, cells were transferred into the fresh medium without IL-3 and puromycin. IL-3-independent transformed cells were maintained in RPMI medium 1640 supplemented with 10%
(§7) FBS. Expression of EGFR was examined by Western blot.
as §1
(§8) Cells were lysed in RIPA buffer (150 mM NaCl, 1.0% IGEPAL® CA-630, 0.5% sodium deoxycholate, 0.1% SDS, 50 mM Tris, pH 8.0) (Sigma, Cat# R0278) with protease inhibitor and phosphatase inhibitor (Roche). The protein concentrations were measured by BCA analysis (Thermo Fisher Scientific, Cat # PI23225). […]
(§9) or IRDye 680RD goat anti-Mouse IgG (LICOR Biosciences , Cat # 926-68070) secondary antibodies at room temperature for 1 hour. The membranes were detected on Odyssey CLx system. […]
(§10) treatment. Cell viability was determined by using CellTiter-Glo (Promega #G7571) according to the manufacturer’s instructions, measuring luminescence using an Envision plate-reader (PerkinElmer Inc.). […]
(§11) After 6 hours treatment, cells were pelleted, washed with PBS once and lysed with IP lysis buffer (25mMTris-HCl pH 7.4, 150mM NaCl, 1 mM EDTA, 1% NP-40 and 5% glycerol) (Thermo Fisher Scientific, Cat#87788) containing protease/phosphatase inhibitor cocktail (Roche). The protein concentrations were measured by BCA analysis (Pierce). […]

[1] = system: EGFR^L858R/C775S Ba/F3 cells; test: Antiproliferation assay (CellTiter-Glo); type: cell-based; conditions: vs EGFR^L858R Ba/F3
Description: as §2, §3, §4, §5, §6, §7, §1, §8, §9, §10, §11

EGFR = system: T2, EGFR; test: Cellular target engagement assays (competitive pulldown); type: cell-based; conditions: 1 μM probe
T2 construct: expressed in transfected cells; host or cells: Ba/F3 (murine pro-B cells transduced with an EGFR mutant expression vector)
Description: Figure 4 ZNL-0056 covalently engages Cys775 and Cys797 in EGFR Ba/F3 cells. (A) Carton of competition EGFR pulldown strategy to test covalent EGFR engagement in cells. (B) Competitive pulldown assay in EGFR^L858R Ba/F3 cells treated with ZNL-0056 at the indicated concentrations for 6 h. Cell lysates were incubated with bio-osimertinib. (C) Competitive pulldown assay in EGFR^L858R Ba/F3 cells treated with ZNL-0056 at the indicated concentrations for 6 h. Cell lysates were incubated with bio-ZNL-0013, which competes for the binding pocket of the target kinase. (D) Competitive pulldown assay in EGFR^L858R/C797S Ba/F3 cells treated with ZNL-0056 at the indicated concentrations for 6 h. Cell lysates were incubated with bio-ZNL-0013, which competes for the binding pocket of the target kinase. Western blotting showing the pulldown (PD) or input (total lysate) of EGFR. […]
as §10, §11

[2] = Figure 2D, read-out: IC50 against MKK7

IC50 (MKK7; [2]) [nM]	fold loss of potency (MKK7) [fold]	SMILES	inhibition of p-JNK1/2 (p-JNK1/2)	other results
> 10000		CCC(=O)Nc1ccccc1Nc1nc(NC2CCN(C(=O)CC)C2)ncc1Cl (centres unmarked) [ZNL-8166]	did not exhibit any inhibition	
		C=CC(=O)Nc1cc(C(=O)Nc2nc3cccc(C)c3n2[C@@H]2CCCCN(C(C)=O)C2)cs1 [ZNL-0013]		cell growth inhibition activity, fold weaker (EGFR^L858R Ba/F3 cells): about 5 fold; potency loss (shift) in the EGFR^L858R/C775S mutant [1]: 20 fold
313	~3	C=CC(=O)N1CCC(Nc2ncc(Cl)c(Nc3ccccc3NC(=O)CC)n2)C1 (centres unmarked) [ZNL-8165]	less potency	
133		C=CC(=O)Nc1ccccc1Nc1nc(NC2CCN(C(=O)C=C)C2)ncc1Cl (centres unmarked) [ZNL-8162]	strong inhibition	IC50 (MKK7; from ZNL-8163 and ZNL-8165 IC50 data, read-out: IC50 estimated from single warhead compounds assuming independent contributions from both covalent bonds): ~182 nM
		C=CC(=O)Nc1cc(C(=O)Nc2nc3cccc(C)c3n2[C@@H]2CCCCN(C(=O)CCOCCOCCOCCOCCNC(=O)CCCC[C@@H]3SC[C@@H]4NC(=O)N[C@@H]43)C2)cs1 [bio-ZNL-0013]		enrichment of EGFR from cell lysate under denaturing conditions (EGFR): significant enrichment
437	~3	C=CC(=O)Nc1ccccc1Nc1nc(NC2CCN(C(=O)CC)C2)ncc1Cl (centres unmarked) [ZNL-8163]	less potency	

Source: paper PMC11212140, “Molecular Bidents with Two Electrophilic Warheads as a New Pharmacological Modality” (ACS Central Science, 2024)
